Patent publication US9028887B2, “Method improve spatial memory via pterostilbene administration” (The United States of America, as represented by the …, priority 2007, dated 2015)

System: M1-transfected COS-7 cells
Assay: Calcium recovery in M1-transfected COS-7 cells after dopamine treatment and oxotremorine-induced depolarization
Assay type: cell-based, African green monkey
Conditions: then 1 mM dopamine 4 hours, 750 μM oxotremorine depolarization
Description: COS-7 cells, a cell line derived from African green monkey kidney, were grown in Dulbecco's Modified Eagle's Medium (D-MEM) supplemented with 10% fetal bovine serum (FBS) and containing 100 U/ml penicillin and 100 μg/ml streptomycin sulfate. Twenty four hours prior to transfection, cells were harvested with trypsin, counted, and plated on […] tissue culture plates at 5×10^6 cells/plate. Cells were transiently transfected with rat muscarinic receptor subtype 1 DNA by the DEAE-dextran method. After transfection, cells were incubated 2.5 hours in growth medium containing 80 μM chloroquine to minimize degradation of the DNA. Transfected cells were then maintained in growth medium for 48 hours, harvested with trypsin, plated to coverslips in 35 mm plates for calcium imaging, and incubated overnight.
Dis. 6:403-411, and hereby incorporated by reference. The BB extract and stilbenes were dissolved in growth media and cells were subsequently incubated for 45 minutes at 37° C. with the treated growth medium, followed by dopamine administration for 4 hours. Following these incubations, the cells were washed three times with extract-free growth medium prior to testing.
Calcium imaging was carried out using a Medical Systems Corp. open perfusion micro-incubator (37° C.) with temperature control that was mounted on the stage of a Nikon Eclipse TE200U microscope and illuminated with a fluorescent light source. Transfected cells were loaded with Fura-2/acetoxymethyl ester (2 μM) in loading medium (99% DMEM 1% FES) for 40 minutes at 37° C. with 5% CO2.
Real time analyses of calcium flux prior to and following 750 μM oxotremorine-induced depolarization were then carried out using Simple PCI software (Compix, Inc. Mars, Pa.). Response and recovery were then determined for each sample. […] Recovery was determined by assessing the time (within 300 sec) for the Ca^2+ levels to return to 20% of the increase following depolarization in the cells that responded. Data was analyzed by Kruskal-Wallis one-way analysis of variance and Mann-Whitney U tests.

COc1ccc(/C=C/c2cc(O)cc(O)c2)cc1 [desoxyrhapontigenin, trans-3,5-dihydroxy-4′-methoxystilbene]
protection against dopamine-induced decreases in Ca2+ Recovery (25 μg/ml pre-treatment 45 min): offered no protection

Oc1cc(O)cc(/C=C/c2ccc(O)c(O)c2)c1 [piceatannol, trans-3,4,3′,5′-tetrahydroxystilbene]
protection against dopamine-induced decreases in Ca2+ Recovery (10 μg/ml pre-treatment 45 min): protected against the dopamine-induced decreases in Recovery

COc1cc(O)cc(/C=C/c2ccc(O)cc2)c1 [pinostilbene, trans-3,4′-dihydroxy-5-methoxystilbene]
protection against dopamine-induced decreases in Ca2+ Recovery (50 μg/ml pre-treatment 45 min): offered no protection

COc1cc(/C=C/c2ccc(O[C@@H]3O[C@H](CO)[C@@H](O)[C@H](O)[C@H]3O)cc2)cc(OC)c1 [pterostilbene glucoside]
protection against dopamine-induced decreases in Ca2+ Recovery (10 μg/ml pre-treatment 45 min): protected against the dopamine-induced decreases in Recovery

COc1ccc(/C=C/c2cc(OC)cc(OC)c2)cc1 [resveratrol trimethylether, trans-3,5,4′-trimethyletherstilbene]
protection against dopamine-induced decreases in Ca2+ Recovery (10 μg/ml pre-treatment 45 min): protected against the dopamine-induced decreases in Recovery

Oc1ccc(/C=C/c2cc(O)cc(O)c2)cc1 [resveratrol, trans-3,5,4′-trihydroxystilbene]
protection against dopamine-induced decreases in Ca2+ Recovery (50 μg/ml pre-treatment 45 min): offered no protection
